Experimental data published in US10087229B2, “Peptide compound” (TAKEDA PHARMACEUTICAL COMPANY LIMITED, priority 2013, dated 2018).
Square brackets hold non-standard residues; d marks the D form. Peptide text beside a SMILES is read from it. NMeY = CN[C@@H](Cc1ccc(O)cc1)C(=O)O; αMeF = C[C@](N)(Cc1ccccc1)C(=O)O; Aib = CC(C)(N)C(=O)O

Assays:
[1] = system: Diet-induced obesity (DIO) male C57BL/6J mice; test: 2-weeks continuous subcutaneous administration study in DIO mice (anti-obesity activity); assay type: in vivo, mouse; settings: 1 nmol/kg/day, subcutaneous Alzet pump, 2 weeks after start of administration; rate of weight loss, control group regarded as 0%
Experimental: 2-Weeks Continuous Subcutaneous Administration Study in DIO Mice
The anti-obesity activity of a test compound was examined by the method described below.
Diet-induced obesity (DIO) mice were prepared by feeding male C57BL/6J mice with high-fat diet (D12451: Research Diets, Inc.). The test compound was dissolved in a solvent (50% DMSO) so that sustained release would occur at 1 nmol/kg/day, and the solution was filled in the Alzet Pump (DURECT Corporation, model: 1002). The pump thus filled with the solution to be administered was immersed in physiological saline for priming, and then used. The pump was embedded by the following method. Each male DIO-C57BL/6J mouse at 35-37 weeks of age (20-26° C., allowed to take food and water ad libitum; 12-hour bright-12-hour dark cycle) was anesthetized; the skin in the upper back thereof was incised, and the above-mentioned pump was embedded subcutaneously; the incision was sutured. After weighing, this mouse was returned to the rearing cage (reared alone), and given previously weighed food; the body weight was measured every 1 to 3 days after the start of administration. The anti-obesity activity of each test compound was evaluated on the basis of the rate of weight loss 2 weeks after the start of administration, with the rate of weight loss in a control group receiving administration of the solvent alone regarded as 0%.

male C57BL/6J mouse = test: 2-days continuous subcutaneous administration test (feeding suppressive activity); assay type: in vivo; settings: 10 nmol/kg/day, subcutaneous Alzet pump, 2-days cumulative food consumption, control (solvent alone) = 0%
How it was run: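 Male C57BL/6J mice, 8-9 weeks, given test compound at 10 nmol/kg/day by subcutaneously implanted osmotic pump (50% DMSO vehicle), housed singly with free food access. Cumulative 2-day food consumption measured; suppression rate (%) calculated relative to vehicle-only controls.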

human glucagon R = molecular target: T1, human glucagon R (Homo sapiens, UniProt P47871); test: Reporter assay of human glucagon R agonist activity, rise in intracellular cAMP as index (hGlucagonR/CRE-LUC/CHO-K1 cells); assay type: cell-based; settings: luciferase reporter; 10 nM glucagon = 100%, DMSO = 0%; 4 hours incubation; read-out: Agonist activity (EC50) hGCGR
T1 construct: expressed in transfected cells; host or cells: CHO-K1 (CRE-LUC/CHO-K1 reporter cells)
Source text: Evaluation of agonist activity against human GIPR, human GLP-1R and human glucagon R using rise in intracellular cAMP concentration as index
(2) Construction of Reporter Plasmid-Expressing Cell
The luciferase reporter gene having an upstream cAMP response sequence was introduced to CHO-K1 cells to construct CRE-LUC/CHO-K1 cells.
(7) Construction of Expression Plasmid for the Human Glucagon R Gene
The human glucagon R gene having a sequence identical to the sequence of GenBank Accession No. NM_000160 was cloned into pMSRα-neo vector to prepare hGlucagonR/pMSRα-neo.
(8) Introduction of the Human Glucagon R Gene into CRE-LUC/CHO-K1 Cell and Obtainment of Expressing Cell […]
The hGIPR/CRE-LUC/CHO-K1 cells were inoculated at a cell density of 25 μL/well (5×10^4 cells/well) to a 384-well white plate (Corning), and cultured overnight in Ham F12 medium containing 10% fetal bovine serum, 100 U/mL penicillin and 100 μg/mL streptomycin in a CO2 incubator of 37° C. […] After 30 minutes, the luciferase activity was measured using a plate reader Envision (PerkinElmer). […] The GIPR agonist activity was calculated with a rise in intracellular cAMP concentration as an index.
The glucagon R agonist activity was assayed in the same way as above using the hGlucagonR/CRE-LUC/CHO-K1 cells. […] The glucagon agonist activity was calculated with a rise in intracellular cAMP concentration as an index.

T1 sequence (P47871 26-477): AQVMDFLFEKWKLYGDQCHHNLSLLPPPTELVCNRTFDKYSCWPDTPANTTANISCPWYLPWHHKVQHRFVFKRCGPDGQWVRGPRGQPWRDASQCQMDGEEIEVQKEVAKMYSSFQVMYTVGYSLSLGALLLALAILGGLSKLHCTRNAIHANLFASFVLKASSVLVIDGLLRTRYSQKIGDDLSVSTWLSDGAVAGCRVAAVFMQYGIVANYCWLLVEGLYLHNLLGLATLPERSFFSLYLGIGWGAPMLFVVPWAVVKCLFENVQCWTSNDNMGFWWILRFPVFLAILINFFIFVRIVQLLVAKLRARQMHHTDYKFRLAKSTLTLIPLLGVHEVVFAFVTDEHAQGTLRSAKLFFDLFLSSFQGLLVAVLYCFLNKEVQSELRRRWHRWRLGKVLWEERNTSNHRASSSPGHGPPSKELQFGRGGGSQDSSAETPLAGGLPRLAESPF

Structure (SMILES) | Change in body weight [1] | Food intake suppression (%) (male C57BL/6J mouse) | EC50 (human glucagon R) [µM]
CC(C)C[C@H](NC(=O)[C@H](CC(C)C)NC(=O)[C@H](Cc1c[nH]c2ccccc12)NC(=O)[C@H](CCCCN)NC(=O)[C@@H](NC(=O)[C@H](Cc1ccccc1)NC(=O)[C@H](CCC(=O)O)NC(=O)[C@H](CCC(N)=O)NC(=O)[C@H](CCC(N)=O)NC(=O)[C@H](C)NC(=O)[C@H](CCC(N)=O)NC(=O)[C@H](CCCCN)NC(=O)[C@H](CC(=O)O)NC(=O)[C@H](CC(C)C)NC(=O)[C@H](Cc1ccc(O)cc1)NC(=O)[C@H](CCCCN)NC(=O)C(C)(C)NC(=O)[C@H](Cc1ccc(O)cc1)NC(=O)[C@H](CC(=O)O)NC(=O)[C@H](CO)NC(=O)[C@@H](NC(=O)[C@](C)(Cc1ccccc1)NC(=O)[C@@H](NC(=O)CNC(=O)[C@H](CCC(=O)O)NC(=O)C(C)(C)NC(=O)[C@@H](N)Cc1ccc(O)cc1)[C@@H](C)O)[C@@H](C)O)C(C)C)C(=O)N[C@@H](CCCCN)C(=O)NCC(=O)NCC(=O)N1CCC[C@H]1C(=O)N[C@@H](CO)C(=O)N[C@@H](CO)C(=O)NCC(=O)N[C@@H](C)C(=O)N1CCC[C@H]1C(=O)N1CCC[C@H]1C(=O)N1CCC[C@H]1C(=O)N[C@@H](CO)C(N)=O [Example 26] (H-Y[Aib]EGT[αMeF]TSDY[Aib]KYLDKQAQQEFVKWLLKGGPSSGAPPPS-NH2) | −16.2 | 53.06 | –
CC(C)C[C@H](NC(=O)[C@H](CC(C)C)NC(=O)[C@H](Cc1c[nH]c2ccccc12)NC(=O)[C@H](CCCCN)NC(=O)[C@@H](NC(=O)[C@H](Cc1ccccc1)NC(=O)[C@H](CCC(=O)O)NC(=O)[C@H](C)NC(=O)[C@H](CCC(N)=O)NC(=O)[C@H](C)NC(=O)[C@H](CCC(N)=O)NC(=O)[C@H](CCCCN)NC(=O)[C@H](CC(=O)O)NC(=O)[C@H](CC(C)C)NC(=O)[C@H](Cc1ccc(O)cc1)NC(=O)[C@H](CCCCN)NC(=O)C(C)(C)NC(=O)[C@H](Cc1ccc(O)cc1)NC(=O)[C@H](CC(=O)O)NC(=O)[C@H](CO)NC(=O)[C@@H](NC(=O)[C@](C)(Cc1ccccc1)NC(=O)[C@@H](NC(=O)CNC(=O)[C@H](CCC(=O)O)NC(=O)C(C)(C)NC(=O)[C@@H](N)Cc1ccc(O)cc1)[C@@H](C)O)[C@@H](C)O)C(C)C)C(=O)N[C@@H](CCCCN)C(=O)NCC(=O)NCC(=O)N1CCC[C@H]1C(=O)N[C@@H](CO)C(=O)N[C@@H](CO)C(=O)NCC(=O)N[C@@H](C)C(=O)N1CCC[C@H]1C(=O)N1CCC[C@H]1C(=O)N1CCC[C@H]1C(=O)N[C@@H](CO)C(=O)N[C@@H](CCCCN)C(N)=O [Example 24] (H-Y[Aib]EGT[αMeF]TSDY[Aib]KYLDKQAQAEFVKWLLKGGPSSGAPPPSK-NH2) | −11.1 | 54.18 | –
CC[C@H](C)[C@H](NC(=O)C(C)(C)NC(=O)[C@H](Cc1ccc(O)cc1)NC(=O)[C@H](CC(=O)O)NC(=O)[C@H](CO)NC(=O)[C@@H](NC(=O)[C@](C)(Cc1ccccc1)NC(=O)[C@@H](NC(=O)CNC(=O)[C@H](CCC(=O)O)NC(=O)C(C)(C)NC(=O)[C@H](Cc1ccc(O)cc1)NC)[C@@H](C)O)[C@@H](C)O)C(=O)NC(C)(C)C(=O)N[C@@H](CC(C)C)C(=O)N[C@@H](CC(=O)O)C(=O)N[C@@H](CCCCN)C(=O)N[C@@H](CCC(N)=O)C(=O)N[C@@H](C)C(=O)N[C@@H](CCC(N)=O)C(=O)N[C@@H](C)C(=O)N[C@@H](CCC(=O)O)C(=O)N[C@@H](Cc1ccccc1)C(=O)N[C@H](C(=O)N[C@@H](CCCCN)C(=O)N[C@@H](Cc1c[nH]c2ccccc12)C(=O)N[C@@H](CC(C)C)C(=O)N[C@@H](CC(C)C)C(=O)N[C@@H](CCCCN)C(=O)NCC(=O)NCC(=O)N1CCC[C@H]1C(=O)N[C@@H](CO)C(=O)N[C@@H](CO)C(=O)NCC(=O)N[C@@H](C)C(=O)N1CCC[C@H]1C(=O)N1CCC[C@H]1C(=O)N1CCC[C@H]1C(=O)N[C@@H](CO)C(=O)N[C@@H](CCCCN)C(N)=O)C(C)C [Example 23] (H-[NMeY][Aib]EGT[αMeF]TSDY[Aib]I[Aib]LDKQAQAEFVKWLLKGGPSSGAPPPSK-NH2) | – | 52.62 | > 1
